Measured values reported in patent US9949968B2, “Diarylalkylamine REV-ERB antagonists and their use as medicaments” (FONDAZIONE ISTITUTO ITALIANO DI TECNOLOGIA, priority 2013, dated 2018).
Where a name gives a salt, the structure may show the parent alone.

Assays:
[1] = cited from earlier work; for pharmacokinetic properties: literature; for metabolic clearance: in vivo, Solt et al., Nature, 2012
[2] = molecular target: T1, REV-ERBα (Homo sapiens, UniProt P20393); conditions: literature; cited from earlier work
T1 sequence (P20393 284-614 limits assumed): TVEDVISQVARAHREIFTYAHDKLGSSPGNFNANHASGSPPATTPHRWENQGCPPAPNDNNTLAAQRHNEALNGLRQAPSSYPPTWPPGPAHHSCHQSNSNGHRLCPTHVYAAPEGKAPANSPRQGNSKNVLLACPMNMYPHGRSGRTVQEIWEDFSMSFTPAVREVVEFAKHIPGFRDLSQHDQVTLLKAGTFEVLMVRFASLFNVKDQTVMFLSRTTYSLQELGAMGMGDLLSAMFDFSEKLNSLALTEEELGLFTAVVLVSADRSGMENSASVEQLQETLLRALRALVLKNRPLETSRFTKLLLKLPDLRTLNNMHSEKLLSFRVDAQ

[3] = molecular target: T2, LXRα (Homo sapiens, UniProt Q13133); conditions: Trump et al., J. Med. Chem., 2013; cited from earlier work
T2 sequence (Q13133 1-447): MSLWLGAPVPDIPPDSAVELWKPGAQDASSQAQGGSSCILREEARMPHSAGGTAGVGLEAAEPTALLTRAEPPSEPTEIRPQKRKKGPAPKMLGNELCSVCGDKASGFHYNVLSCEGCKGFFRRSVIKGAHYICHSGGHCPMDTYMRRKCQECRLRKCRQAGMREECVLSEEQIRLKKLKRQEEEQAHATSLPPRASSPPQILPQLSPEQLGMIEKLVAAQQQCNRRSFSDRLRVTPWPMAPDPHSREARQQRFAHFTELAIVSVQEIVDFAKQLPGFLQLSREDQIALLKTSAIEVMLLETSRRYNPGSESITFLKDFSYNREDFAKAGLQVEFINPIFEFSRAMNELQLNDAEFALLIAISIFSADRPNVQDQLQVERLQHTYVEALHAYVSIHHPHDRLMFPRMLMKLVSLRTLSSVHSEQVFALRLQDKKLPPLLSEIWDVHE

[4] = test system: WiDr; test: Growth inhibition of different tumor cell lines: WiDr; assay type: cell-based; conditions: Homo sapiens, colon adenocarcinoma, p53 mutant protein
Source text: (§1) The CyQUANT® Cell Proliferation Assay Kit (Invitrogen) was used, an assay that has a linear detection range extending from 50 or fewer to at least 250,000 cells.
(§2) Frozen cells are simply thawed and lysed by addition of a buffer containing the CyQUANT®.
(§3) Data were collected and analyzed with Prism 5 software to calculate the growth inhibition curve.
(§4) In particular, values obtained from the DMSO treated cells was set at 100% of growth. Data from treatment of cells with serial dilutions of the compounds were normalized versus the DMSO group and fitted using a four-parameter dose-response curve.
(§5) GI50 was calculated as the concentration of compound that gives a response half way between bottom and top plateaus of the fitted curve.
(§6) To test if the growth inhibition activity of the compound of example 1 was limited to breast cancer BT-474 cells, or if it could be generalized in other tumor cells from different tissues, the GI50 of compound of example 1 was tested in several cell lines.

[5] = test system: HuH7; test: Growth inhibition of different tumor cell lines: HuH7; assay type: cell-based; conditions: Homo sapiens, Huh-7; HuH7, liver hepatocellular carcinoma, p53 mutant protein
Source text: as §1, §2, §3, §4, §5, §6

[6] = test system: CaCO2; test: Growth inhibition of different tumor cell lines: CaCO2; assay type: cell-based; conditions: Homo sapiens, Caco-2; CaCO2, colorectal adenocarcinoma, p53 no protein expression
Source text: as §1, §2, §3, §4, §5, §6

[7] = test system: HCT116-E6; test: Growth inhibition of different tumor cell lines: HCT116-E6; assay type: cell-based; conditions: HCT116-E6, colorectal carcinoma, p53 no protein expression
Source text: as §1, §2, §3, §4, §5, §6

[8] = test system: SK-Hep1; test: Growth inhibition of different tumor cell lines: SK-Hep1; assay type: cell-based; conditions: Homo sapiens; SK-Hep1, liver adenocarcinoma, p53 Wild-Type
Source text: as §1, §2, §3, §4, §5, §6

[9] = test system: tumorigenic breast cancer cells BT-474; test: Growth inhibition assay (CyQUANT Cell Proliferation Assay) in BT-474 cells; assay type: cell-based; conditions: Homo sapiens; for GI50: 48 h, CyQUANT, read-out: Cell Growth Inibition GI50; for Emax: reduction of cells after 48 h at saturating dose, read-out: Cell Growth Inibition GImax
Source text: Given that REV-ERB target genes include several metabolic regulators, such as Pgc-1α and Nampt, it was decided to test the cell proliferation with a method that is independent from the metabolic state of the cell.
as §1, §2
For the assay, tumorigenic breast cancer cells BT-474 cells were seeded at 2500 cells per well in a 96-well plate and incubated over-night at 37° C. Then, fresh medium containing different concentration of the compounds or vehicle (DMSO) was added and cells were growth 48 h at 37° C. Finally, cells were frozen at […] and then processed according to the manufacture instructions. A minimum of triplicate data for each dose was used for the analysis.
as §3, §4, §5
The bottom plateaus of the fitted curve was used to calculate the Growth Inhibition max (GImax), defined as the percentage of the reduction of cells after 48 h upon a saturating dose of compound.
(§7) The different compounds were tested for their ability to inhibit the growth of the tumorigenic breast cancer cells BT-474 and for their antagonistic activity toward REV-ERB transcriptional repression, as described in the biological method section.
For the cell growth inhibition (GI) the growth inhibition 50 (GI50) and the growth inhibition max (GImax) are reported. […] The bottom plateaus of the curve was used to calculate the Growth Inhibition max (GImax), defined as the percentage of the reduction of cells after 48 h upon a saturating dose of the administered compound. Compounds with a GI50<100 μM were also tested for their antagonistic activity toward REV-ERB. For these compounds, the EC50 value is provided, calculated as the concentration of compound that gives a response half between the bottom (expression of the reporter in absence of compound) and the top (expression of the reporter at saturating doses of compound) plateaus of the fitted curves (see biological method section for a description of the reported assay). n.d.=not determined; n.t.=not tested.

[10] = test system: Hep3B; test: Growth inhibition of different tumor cell lines: Hep3B; assay type: cell-based; conditions: Homo sapiens, liver hepatocellular carcinoma, p53 no protein expression
Source text: as §1, §2, §3, §4, §5, §6

[11] = test system: endogenous REV-ERB mediated transcription; test: Gene expression analysis (qPCR) of endogenous REV-ERB target genes in BT-474 cells; assay type: cell-based; conditions: 24 h, different doses, qPCR normalised to Gapdh
Experimental: Gene Expression Analysis of Endogenous REV-ERB Target Genes after Treatment with the Compound of Example 1
In order to test the effect of the compound of example 1 on the endogenous REV-ERB mediated transcription, BT-474 cells were treated 24 h with different doses of the compound of the example 1 and then processed for RNA extraction.
Total RNA was extracted with Trizol reagent (Invitrogen) according to the manufacture instruction. One microgram of RNA was retro-transcribed with VILO retrotranscription mix (Invitrogen) and subsequently analyzed by qPCR as described in Grimaldi et al., Cell Metab., 2010; 12:509-520.
The REV-ERB targets Per1, Bmal1, Nampt, and p21 were analyzed. Gapdh gene was used to normalize the data, while Hprt1 gene was used as independent REV-ERB gene (negative control).
The results obtained are illustrated in FIG. 1 Values are presented as Relative expression, calculated versus the normalizing gene Gapdh, and shown as mean±SEM from at least 3 independent experiments. The expression of the REV-ERBs independent gene, Hprt1, was used as negative control.

[12] = test system: HepG2; test: Growth inhibition of different tumor cell lines: HepG2; assay type: cell-based; conditions: Homo sapiens; HepG2, liver hepatocellular carcinoma, p53 Wild-Type
Source text: as §1, §2, §3, §4, §5, §6

[13] = test system: REV-ERB; test: Luciferase-based assay of REV-ERB mediated transcriptional regulation (RevRE/SV40-CLuc reporter in HEK-293 cells); assay type: cell-based; conditions: HEK-293 cells transfected with RevRE reporter and REV-ERBα and/or β; read 24 h post-transfection; read-out: REV-ERB antagonism EC50
Source text: Luciferase-Base Assay to Assess the Activity of the Compounds on REV-ERB Mediated Transcriptional Regulation
In order to assess the effect of the compounds of the invention on REV-ERB activity the inventors exploited the ability of REV-ERB to repress gene transcription of a specific DNA cis-element. In fact, the DNA binding domain (DBD) of REV-ERB recognizes specific DNA sequences (called RevREs=Rev-erb Responsive Elements) which contains an AGGTCA motif linked in 5′ to an A/T rich sequence harboring the following consensus: A/T A A/T N T (Harding et al., Mol Cell Biol., 1993; 13:3113).
Therefore, two repetitions of the RevRE consensus AGAATGTAGGTCA (SEQ ID NO: 13) upstream a SV40 promoter driving the expression of a reporter gene were cloned. As reported, the luciferase enzyme from the ostracod Cypridina noctiluca was adopted. […] Cypridina luciferase (CLuc) is secreted from cells by virtue of its natural signal peptide and its luminescence can be measured from the supernatant of transfected cells. Therefore, cell lysis is not necessary. Secreted CLuc is a very stable protein. Because of this property, the activity measured from the supernatant reflects the amount of protein accumulated up to the time of sampling. Multiple samples can therefore be obtained from the same transfected cells, allowing an easy set-up of time-course experiments. In addition, the direct use of the supernatant makes the system easily prone to automation for High Throughput Screening.
In order to normalize the experiment for the transfection efficiency, it was used a plasmid containing a SV40 promoter driving the expression of a secreted form of human alkaline phosphatase (SEAP), which enzymatic activity in the supernatant can be measured with chemiluminescence substrates.
To be able to rule out false-positive, for example due to the interference of the compounds to be tested with the fluorescence and/or chemiluminescence reactions, it was used as control a mutated version of the RevRE (GAGCCCGTAGGTCA) (SEQ ID NO: 14) that is no longer able to bind REV-ERB DBD (Harding et al., Mol Cell Biol., 1993; 13:3113).
The person skilled in the art will appreciate that an agonist will improve the ability of REV-ERB to repress the transcription, reducing the luminescence signal, while an antagonist will produce the opposite effect.
For the assay, HEK-293 cells were transfected with the reporter vectors and a plasmid expressing the REV-ERBα and/or β protein. After 6 h from transfection, the medium was replaced with fresh medium containing different doses of the compounds or vehicle (DMSO). After 24 h post-transfection, the supernatant was analyzed for the secreted luciferase and AP activity according to the manufacture instruction. Data normalized as fold activation versus vehicle (DMSO) were fitted using a four-parameter dose-response curve to calculate the EC50 of the different compounds.
as §7
For the cell growth inhibition (GI) the growth inhibition 50 (GI50) and the growth inhibition max (GImax) are reported. […] The bottom plateaus of the curve was used to calculate the Growth Inhibition max (GImax), defined as the percentage of the reduction of cells after 48 h upon a saturating dose of the administered compound. Compounds with a GI50<100 μM were also tested for their antagonistic activity toward REV-ERB. […]

[14] = test system: HCT116; test: Growth inhibition of different tumor cell lines: HCT116; assay type: cell-based; conditions: Homo sapiens, HCT-116; HCT116, colorectal carcinoma, p53 Wild-Type
Source text: as §1, §2, §3, §4, §5, §6

[15] = test system: Colo-205; test: Growth inhibition of different tumor cell lines: Colo-205; assay type: cell-based; conditions: Homo sapiens; Colo-205, colon, metastatic site: ascites, p53 mutant protein
Source text: as §1, §2, §3, §4, §5, §6

In the case of `CCOC(=O)C1Cc2ccccc2CN1C(=O)c1ccc(SC)s1` (centres unmarked) [SR8278], the pharmacokinetic properties [1] is listed as “poor pharmacokinetic properties” and the “effect on interaction of NCoR peptide with REV-ERBα (FRET)” value [2] is listed as “inhibit REV-ERBα LBD/NcoR interaction”.
In the case of `CC(C)(C)OC(=O)CN(Cc1ccc(Cl)cc1)Cc1ccc([N+](=O)[O-])s1` [GSK4112], the pharmacokinetic properties [1] is listed as “poor pharmacokinetic properties”, the “effect on interaction of NCoR peptide with REV-ERBα (FRET)” value [2] is listed as “dose-dependently increase the interaction” and the “activity on LXRα” value [3] is listed as “agonizes”.
`CN1CCN(Cc2cc(CNC3(c4ccccc4F)CCCC3)ccc2O)CC1` [Example 1, 4-[[[1-(2-Fluorophenyl)cyclopentyl]amino]methyl]-2-[(4-methylpiperazin-1-yl)methyl]phenol trihydrochloride] gave a GI50 [4] of 12 µM, a GI50 [5] of 8 µM and a GI50 [6] of 18 µM. It also gave a GI50 [7] of 20 µM, a GI50 [8] of 50 µM and a GI50 [9] of 18 µM. The Emax [9] was 72%, the GI50 [10] was 10 µM and the “expression of Bmal1 (REV-ERB target, circadian regulation)” value [11] was “induced in a dose-dependent manner”. For the same compound, the “expression of Nampt (REV-ERB target, metabolism)” value [11] was “induced in a dose-dependent manner”, the “expression of Per1 (REV-ERB target, circadian regulation)” value [11] was “induced in a dose-dependent manner” and the “expression of p21 (REV-ERB target, cell cycle)” value [11] was “induced in a dose-dependent manner”. The “expression of the REV-ERB independent gene Hprt1 (negative control)” value [11] was “negligible effects”, the GI50 [12] was 10 µM and the EC50 [13] was 25 µM. For the same compound, the GI50 [14] was 19 µM and the GI50 [15] was 30 µM.
In the case of `CCOC(=O)N1CCC(CN(Cc2ccc(Cl)cc2)Cc2ccc([N+](=O)[O-])s2)C1` (centres unmarked) [SR9009], the metabolic clearance [1] is listed as “high metabolic clearance rates” and the “times more active toward LXRα than REV-ERBs” value [3] is listed as 100 times.
For `CCCCCNC(=O)N1CCC(CN(Cc2ccc(Cl)cc2)Cc2ccc([N+](=O)[O-])s2)C1` (centres unmarked) [SR9011], the metabolic clearance [1] is given as “high metabolic clearance rates” and the “times more active toward LXRα than REV-ERBs” value [3] is given as 100 times.
For `CN1CCN(Cc2cccc(CNC3(c4ccccc4F)CCCC3)c2)CC1` [Example 4, 1-(2-Fluorophenyl)-N-[[3-[(4-methylpiperazin-1-yl)methyl]phenyl]methyl]-cyclopentanamine trihydrochloride], the GI50 [9] was 30 µM, the Emax [9] was 73% and the EC50 [13] was 47 µM.
With `CN1CCC(Cc2cccc(CNC3(c4ccc(F)cc4)CCCC3)c2)CC1` [Example 32, 1-(4-Fluorophenyl)-N-[[3-[(1-methyl-4-piperidyl)methyl]phenyl]methyl]cyclopentanamine dihydrochloride] the GI50 [9] was 1 µM, the Emax [9] was 97% and the EC50 [13] was 2 µM.
